Results: US4359458A, “O-β. -D (and O-α.. -D) Multigalactopyranosyl, xylopyranosyl and glucopyranosyl sulfate salts” (American Cyanamid Company, priority 1981, dated 1982)
Where a name gives a salt, the structure may show the parent alone. Read-outs that look alike come from different tables or passages of the source.

What was measured:
complement system = conditions: Br. J. Exp. Pathol. 33: 327 (1952); cited from earlier work
activated human C1 = activated human C1 (Homo sapiens, UniProt P09871); assay: Test Code 026 (C1 inhibitor); assay type: biochemical; conditions: serial dilution assay, twofold dilutions; higher well number indicates higher activity
Text: (§1) An active inhibitor protects C2 from C1 and C4; (ii) Test Code 035 (C3-C9 inhibitor)--This test determines the ability of the late components of human complement (C3-C9) to lyse EAC 142 in the presence of appropriate dilutions of the test compound. An active inhibitor protects EAC 142 from lysis by human C3-C9; (iii) Test Code 036 (C-Shunt inhibitor)--In this test human erythrocytes rendered fragile are lysed in autologous serum via the shunt pathway activated by cobra venom factor in the presence of appropriate dilutions of the test compound. Inhibition of the shunt pathway results in failure of lysis; (iv) Cap 50 Test--Here, appropriate amounts of the test compound are added to a pool of guinea pig serum in vitro, after which the undiluted serum capillary tube assay of U.S. Pat. No. 3,876,376 is run. The concentration of compound inhibiting 50% is reported; and (v) Guinea Pig Intraperitoneal Test (GPIP)--Guinea pigs weighing about 300 g are dosed intraperitoneally (i.p.) with 200 mg/kg of the test compound dissolved in saline and adjusted to pH 7-8. Approximately 0.4 ml blood samples, taken by orbital sinus puncture 30 minutes and one hour after injections, are collected directly into centrifuge tubes; 5 ml blood samples, taken by decapitation 2 hours after injection are collected directly into beakers. The samples are allowed to clot, centrifuged, and the resultant sera are assayed for complement activity using the capillary complement assay. Percent inhibition is calculated by comparison with simultaneous controls. The results of the GPIP appear in Table I together with results of test code 026, 035, 036 and Cap 50.

complement activity = assay: Guinea Pig Intraperitoneal Test (GPIP); assay type: in vivo; conditions: Cavia porcellus, ip, 200 mg/kg i.p.
Text: as §1

[1] = test system: shunt pathway activated by cobra venom factor; assay: Test Code 036 (C-Shunt inhibitor); assay type: cell-based, human; conditions: serial dilution assay, twofold dilutions; higher well number indicates higher activity; N = Negative
Text: as §1

[2] = test system: late components of human complement (C3-C9); assay: Test Code 035 (C3-C9 inhibitor); assay type: biochemical; conditions: serial dilution assay, twofold dilutions; higher well number indicates higher activity; N = Negative
Text: as §1

[3] = test system: hereditary angioneurotic edema; conditions: literature reports; cited from earlier work
[4] = test system: total hemolytic complement activity; conditions: both in vitro and in vivo; judged by reduction in total hemolytic complement activity; cited from earlier work

Row | Molecule | Cl 026 Wells (activated human C1) [Wells] | C-Shunt Inhibition 036 Wells [1] [Wells] | C-Late 035 Wells [2] | also measured
1 | Nc1ccc2cc(S(=O)(=O)O)cc(O)c2c1N=Nc1ccc(NC(=O)Nc2ccc(N=Nc3c(N)ccc4cc(S(=O)(=O)O)cc(O)c34)c(S(=O)(=O)O)c2)cc1S(=O)(=O)O [chlorazol fast pink, 3,3'-ureylenebis [6-(2-amino-8-hydroxy-6-sulfo-1-naphthylazo)benzenesulfonic acid], tetrasodium salt] | – | – | – | anti-complementary effect (complement system): anti-complementary effect
2 | O=S(=O)(O)O[C@@H]1[C@@H](OS(=O)(=O)O)[C@@H](O[C@H]2O[C@H](CO[C@@H]3OC[C@@H](OS(=O)(=O)O)[C@H](OS(=O)(=O)O)[C@H]3OS(=O)(=O)O)[C@@H](OS(=O)(=O)O)[C@H](OS(=O)(=O)O)[C@H]2OS(=O)(=O)O)O[C@H](CO[C@@H]2OC[C@@H](OS(=O)(=O)O)[C@H](OS(=O)(=O)O)[C@H]2OS(=O)(=O)O)[C@H]1OS(=O)(=O)O [drawing 14, Xyl 1β,6 glc 1α,1α' glc 1β,6 xyl, dodecakis (H-sulfate), dodecasodium salt] | 11 | 4 | – | inhibition at 200 mg/kg (complement activity; 0.5 h, serum 30 minutes after injection, read-out: In vivo activity (Guinea Pigs) % Inhibition Intraperitoneal, 30 minutes): 57%; inhibition at 200 mg/kg (complement activity; 1 h, serum 60 minutes after injection, read-out: In vivo activity (Guinea Pigs) % Inhibition Intraperitoneal, 60 minutes): 69%; inhibition at 200 mg/kg (complement activity; 2 h, serum 120 minutes after injection, read-out: In vivo activity (Guinea Pigs) % Inhibition Intraperitoneal, 120 minutes): 78%
3 | O=S(=O)(O)OC[C@H]1O[C@@H](OC[C@H]2O[C@H](O[C@H]3O[C@H](CO[C@@H]4O[C@H](COS(=O)(=O)O)[C@@H](O[C@H]5O[C@H](COS(=O)(=O)O)[C@@H](O[C@H]6O[C@H](COS(=O)(=O)O)[C@@H](O[C@H]7O[C@H](COS(=O)(=O)O)[C@@H](O[C@H]8O[C@H](COS(=O)(=O)O)[C@@H](O[C@H]9O[C@H](COS(=O)(=O)O)[C@@H](O[C@H]%10O[C@H](COS(=O)(=O)O)[C@@H](OS(=O)(=O)O)[C@H](OS(=O)(=O)O)[C@H]%10OS(=O)(=O)O)[C@H](OS(=O)(=O)O)[C@H]9OS(=O)(=O)O)[C@H](OS(=O)(=O)O)[C@H]8OS(=O)(=O)O)[C@H](OS(=O)(=O)O)[C@H]7OS(=O)(=O)O)[C@H](OS(=O)(=O)O)[C@H]6OS(=O)(=O)O)[C@H](OS(=O)(=O)O)[C@H]5OS(=O)(=O)O)[C@H](OS(=O)(=O)O)[C@H]4OS(=O)(=O)O)[C@@H](OS(=O)(=O)O)[C@H](OS(=O)(=O)O)[C@H]3OS(=O)(=O)O)[C@H](OS(=O)(=O)O)[C@@H](OS(=O)(=O)O)[C@@H]2OS(=O)(=O)O)[C@H](OS(=O)(=O)O)[C@@H](OS(=O)(=O)O)[C@@H]1O[C@H]1O[C@H](COS(=O)(=O)O)[C@@H](O[C@H]2O[C@H](COS(=O)(=O)O)[C@@H](O[C@H]3O[C@H](COS(=O)(=O)O)[C@@H](O[C@H]4O[C@H](COS(=O)(=O)O)[C@@H](O[C@H]5O[C@H](COS(=O)(=O)O)[C@@H](O[C@H]6O[C@H](COS(=O)(=O)O)[C@@H](OS(=O)(=O)O)[C@H](OS(=O)(=O)O)[C@H]6OS(=O)(=O)O)[C@H](OS(=O)(=O)O)[C@H]5OS(=O)(=O)O)[C@H](OS(=O)(=O)O)[C@H]4OS(=O)(=O)O)[C@H](OS(=O)(=O)O)[C@H]3OS(=O)(=O)O)[C@H](OS(=O)(=O)O)[C@H]2OS(=O)(=O)O)[C@H](OS(=O)(=O)O)[C@H]1OS(=O)(=O)O [drawing 23, Glc 1α,4 (glc 1α,4)5 glc 1β,6 glc 1α,1α'glc 1β,6 glc (glc 1α,4)5 1α,4 glc, pentacontakis (H-sulfate), pentacontasodium salt] | 9 | 6 | 2 Wells | –
4 | O=S(=O)(O)OC[C@H]1O[C@@H](OC[C@H]2O[C@H](O[C@H]3O[C@H](COS(=O)(=O)O)[C@@H](OS(=O)(=O)O)[C@H](OS(=O)(=O)O)[C@H]3OS(=O)(=O)O)[C@H](OS(=O)(=O)O)[C@@H](OS(=O)(=O)O)[C@@H]2OS(=O)(=O)O)[C@H](OS(=O)(=O)O)[C@@H](OS(=O)(=O)O)[C@@H]1O[C@H]1O[C@H](COS(=O)(=O)O)[C@@H](O[C@H]2O[C@H](COS(=O)(=O)O)[C@@H](O[C@H]3O[C@H](COS(=O)(=O)O)[C@@H](O[C@H]4O[C@H](COS(=O)(=O)O)[C@@H](O[C@H]5O[C@H](COS(=O)(=O)O)[C@@H](O[C@H]6O[C@H](COS(=O)(=O)O)[C@@H](OS(=O)(=O)O)[C@H](OS(=O)(=O)O)[C@H]6OS(=O)(=O)O)[C@H](OS(=O)(=O)O)[C@H]5OS(=O)(=O)O)[C@H](OS(=O)(=O)O)[C@H]4OS(=O)(=O)O)[C@H](OS(=O)(=O)O)[C@H]3OS(=O)(=O)O)[C@H](OS(=O)(=O)O)[C@H]2OS(=O)(=O)O)[C@H](OS(=O)(=O)O)[C@H]1OS(=O)(=O)O [drawing 25, Glc 1α,4 (glc 1α,4)5 glc 1β,6 glc 1α,1α'glc, nonacosakis (H-sulfate), nonacosasalt with trimethylamine] | 9 | 5 | N | –
5 | O=S(=O)(O)OC[C@H]1O[C@@H](OC[C@H]2O[C@H](O[C@H]3O[C@H](COS(=O)(=O)O)[C@@H](OS(=O)(=O)O)[C@H](OS(=O)(=O)O)[C@H]3OS(=O)(=O)O)[C@H](OS(=O)(=O)O)[C@@H](OS(=O)(=O)O)[C@@H]2OS(=O)(=O)O)[C@H](OS(=O)(=O)O)[C@@H](OS(=O)(=O)O)[C@@H]1O[C@H]1O[C@H](COS(=O)(=O)O)[C@@H](O[C@H]2O[C@H](COS(=O)(=O)O)[C@@H](O[C@H]3O[C@H](COS(=O)(=O)O)[C@@H](O[C@H]4O[C@H](COS(=O)(=O)O)[C@@H](O[C@H]5O[C@H](COS(=O)(=O)O)[C@@H](O[C@H]6O[C@H](COS(=O)(=O)O)[C@@H](OS(=O)(=O)O)[C@H](OS(=O)(=O)O)[C@H]6OS(=O)(=O)O)[C@H](OS(=O)(=O)O)[C@H]5OS(=O)(=O)O)[C@H](OS(=O)(=O)O)[C@H]4OS(=O)(=O)O)[C@H](OS(=O)(=O)O)[C@H]3OS(=O)(=O)O)[C@H](OS(=O)(=O)O)[C@H]2OS(=O)(=O)O)[C@H](OS(=O)(=O)O)[C@H]1OS(=O)(=O)O [drawing 26, glc 1α,4 (glc 1α,4)5 glc 1β,6 glc 1α,1α'glc, nonacosakis (H-sulfate), nonacosasodium salt] | 10 | 6 | 1 Wells | –
6 | NCCCCCC(=O)O [epsilon-aminocaproic acid] | – | – | – | treatment of hereditary angioneurotic edema [3]: used with success
7 | NC[C@H]1CC[C@H](C(=O)O)CC1 [tranexamic acid] | – | – | – | treatment of hereditary angioneurotic edema [3]: used with success
8 | heparin | – | – | – | anti-complementary effect (complement system): anti-complementary effect
9 | pentosanpolysulfoester | – | – | – | anticomplementary activity on human serum [4]: anticomplementary activity
